Experimental findings from ChEMBL document CHEMBL1123140, “Acylamino boronic acids and difluoroborane analogues of amino acids: potent inhibitors of chymotrypsin and elastase” (J Med Chem, 1985) are described below.

Chymotrypsinogen B, sequence (P17538 34-164 limits assumed, other chains not shown): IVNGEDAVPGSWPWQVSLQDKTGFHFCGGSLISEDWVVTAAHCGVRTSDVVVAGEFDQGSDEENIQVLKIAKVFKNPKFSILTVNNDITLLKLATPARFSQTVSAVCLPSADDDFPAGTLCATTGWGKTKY
Chymotrypsinogen B, sequence (P17538 167-263 limits assumed, other chains not shown): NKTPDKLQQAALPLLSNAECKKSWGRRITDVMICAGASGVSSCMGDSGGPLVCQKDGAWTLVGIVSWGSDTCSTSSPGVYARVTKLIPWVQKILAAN

The first assay addresses Chymotrypsinogen B (Homo sapiens, UniProt P17538). Briefly: Competitive inhibition of alpha-chymotrypsin.
With `CC(=O)N[C@@H](Cc1ccccc1)B(F)F`, the affinity, expressed as Ki, was 1700 nM.
Turning to `O=C(NC(Cc1ccccc1)B(O)O)c1ccccc1` (stereo not given), the affinity corresponds to a Ki of 650 nM.
In the case of `O=C(N[C@@H](Cc1ccccc1)B(O)O)c1ccccc1`, the Ki (usually a dissociation constant, usually derived from enzyme kinetics or from competition with a known ligand) was determined as 360 nM.
Turning to `CC(NC(=O)OCc1ccccc1)C(=O)NC(B(F)F)c1ccccc1` (stereo not given), the affinity corresponds to a Ki of 2000 nM.
Still for that read-out and setting: in the case of `CC(=O)NC(Cc1ccccc1)B(F)F` (stereo not given) it was 7400 nM; in that of `O=C(NC(B(F)F)c1ccccc1)c1ccccc1` (stereo not given), 5000 nM.
`O=C(NC(Cc1ccccc1)B(F)F)c1ccccc1` (stereo not given) came in with a Ki of 650 nM.
Same read-out and setting: the figure for `CC(=O)N[C@@H](Cc1ccccc1)B(O)O` is 2100 nM.
The same measure, in the same setting: the figure for `O=C(N[C@@H](Cc1ccccc1)B(F)F)c1ccccc1` is 270 nM.
Same read-out and setting: in the case of `CC(=O)NC(Cc1ccccc1)B(O)O` (stereo not given) it was 6500 nM.

Target in a further assay: not listed separately
Briefly: Competitive inhibition of porcine elastase by the compound was evaluated. The arrangement: species or system Sus scrofa.
`CC[C@H](C)[C@H](NC(=O)C(C)NC(=O)OCc1ccccc1)B(F)F` (stereo not given in full) displayed a Ki of 100 nM.
Still for that read-out and setting: the figure for `CC[C@H](C)[C@H](NC(=O)C(C)NC(=O)OCc1ccccc1)B(O)O` (stereo not given in full) is 120 nM; for `CC(NC(=O)OCc1ccccc1)C(=O)N[C@H](B(O)O)C(C)C` (stereo not given in full) it is 1100 nM; for `CC(NC(=O)OCc1ccccc1)C(=O)N[C@H](B(F)F)C(C)C` (stereo not given in full) it is 1000 nM.
The same measure, in the same setting: the figure for `CC(NC(=O)OCc1ccccc1)C(=O)N[C@@H](C)B(F)F` (stereo not given in full) is 34500 nM.
